Laboratory results: publication PMC10006169, “A phase I trial of LXS196, a protein kinase C (PKC) inhibitor, for metastatic uveal melanoma” (British Journal of Cancer, 2023)
Where “and” joins values, the source holds several entries; their conditions need not be identical. Equal values may be shown once. Marks after values point to notes of the source that are not given here.

Tested on: patients with MUM
Assay: Grade ≥3 serious adverse events regardless of study drug relationship
Assay type: in vivo, human
Method: Routine safety assessments, including laboratory assessments, physical examinations, vital signs and electrocardiograms (ECGs), were conducted at regular intervals throughout the study and more frequently as needed following patient assessment by the treating physician. Adverse events (AEs) were assessed continuously according to the National Cancer Institute Common Terminology Criteria for Adverse Events (NCI-CTCAE) v4.03.

CC1(N)CCN(c2cccnc2NC(=O)c2nc(-c3ncccc3C(F)(F)F)cnc2N)CC1 [LXS196]
1 (25.0) n (%): Nausea SAE (200 mg QD) | Patients with ≥1 SAE (200 mg QD) | Pneumonia SAE (200 mg QD) | Vomiting SAE (200 mg QD) | Hypotension SAE (1000 mg QD) | Pneumonia SAE (1000 mg QD)
1 (100) n (%): Hypotension SAE (800 mg QD) | Patients with ≥1 SAE (800 mg QD)
5 (27.8) n (%): Patients with ≥1 SAE (300 mg BID (RDE))
7 (18.4) n (%): Patients with ≥1 SAE (All QD)
2 (5.3) n (%): Pneumonia SAE (All QD)
1 (16.7) n (%): Cellulitis SAE (200 mg BID) | Patients with ≥1 SAE (200 mg BID) | Hypotension SAE (400 mg BID) | Patients with ≥1 SAE (400 mg BID)
2 (50.0) n (%): Patients with ≥1 SAE (1000 mg QD)
3 (4.4) n (%): Pneumonia SAE (All patients)
0^b n (%): Diarrhoea SAE (500 mg QD) | Constipation SAE (All QD) | Diarrhoea SAE (All QD) | Constipation SAE (All patients) | Diarrhoea SAE (All patients)
1 (1.5) n (%): Acute kidney injury SAE (All patients) | Cellulitis SAE (All patients) | Eyelid bleeding SAE (All patients) | Hepatic cytolysis SAE (All patients) | Hepatic failure SAE (All patients) | Nausea SAE (All patients) | Neutrophil count decreased SAE (All patients) | Oedema peripheral SAE (All patients) | Rash pruritic SAE (All patients) | Thrombocytopenia SAE (All patients) | Vomiting SAE (All patients)
14 (20.6%) n (%) and 14 (20.6) n (%): Patients with ≥1 SAE (All patients)
6 (8.8) n (%): Hypotension SAE (All patients)
1 (5.6) n (%): Acute kidney injury SAE (300 mg BID (RDE)) | Eyelid bleeding SAE (300 mg BID (RDE)) | Hepatic cytolysis SAE (300 mg BID (RDE)) | Hepatic failure SAE (300 mg BID (RDE)) | Neutrophil count decreased SAE (300 mg BID (RDE)) | Oedema peripheral SAE (300 mg BID (RDE)) | Pneumonia SAE (300 mg BID (RDE)) | Rash pruritic SAE (300 mg BID (RDE)) | Thrombocytopenia SAE (300 mg BID (RDE))
5 (13.2) n (%): Hypotension SAE (All QD)
7 (23.3) n (%): Patients with ≥1 SAE (All BID)
1 (3.3) n (%): Acute kidney injury SAE (All BID) | Cellulitis SAE (All BID) | Eyelid bleeding SAE (All BID) | Hepatic cytolysis SAE (All BID) | Hepatic failure SAE (All BID) | Hypotension SAE (All BID) | Neutrophil count decreased SAE (All BID) | Oedema peripheral SAE (All BID) | Pneumonia SAE (All BID) | Rash pruritic SAE (All BID) | Thrombocytopenia SAE (All BID)
3 (27.3) n (%): Hypotension SAE (500 mg QD) | Patients with ≥1 SAE (500 mg QD)
1 (2.6) n (%): Nausea SAE (All QD) | Vomiting SAE (All QD)
0 n (%): Acute kidney injury SAE (100 mg QD) | Cellulitis SAE (100 mg QD) | Constipation SAE (100 mg QD) | Diarrhoea SAE (100 mg QD) | Eyelid bleeding SAE (100 mg QD) | Hepatic cytolysis SAE (100 mg QD) | Hepatic failure SAE (100 mg QD) | Hypotension SAE (100 mg QD) | Nausea SAE (100 mg QD) | Neutrophil count decreased SAE (100 mg QD) | Oedema peripheral SAE (100 mg QD) | Patients with ≥1 SAE (100 mg QD) | Pneumonia SAE (100 mg QD) | Rash pruritic SAE (100 mg QD) | Thrombocytopenia SAE (100 mg QD) | Vomiting SAE (100 mg QD) | Acute kidney injury SAE (200 mg BID) | Constipation SAE (200 mg BID) | Diarrhoea SAE (200 mg BID) | Eyelid bleeding SAE (200 mg BID) | Hepatic cytolysis SAE (200 mg BID) | Hepatic failure SAE (200 mg BID) | Hypotension SAE (200 mg BID) | Nausea SAE (200 mg BID) | Neutrophil count decreased SAE (200 mg BID) | Oedema peripheral SAE (200 mg BID) | Pneumonia SAE (200 mg BID) | Rash pruritic SAE (200 mg BID) | Thrombocytopenia SAE (200 mg BID) | Vomiting SAE (200 mg BID) | Acute kidney injury SAE (200 mg QD) | Cellulitis SAE (200 mg QD) | Diarrhoea SAE (200 mg QD) | Eyelid bleeding SAE (200 mg QD) | Hepatic cytolysis SAE (200 mg QD) | Hepatic failure SAE (200 mg QD) | Hypotension SAE (200 mg QD) | Neutrophil count decreased SAE (200 mg QD) | Oedema peripheral SAE (200 mg QD) | Rash pruritic SAE (200 mg QD) | Thrombocytopenia SAE (200 mg QD) | Cellulitis SAE (300 mg BID (RDE)) | Constipation SAE (300 mg BID (RDE)) | Diarrhoea SAE (300 mg BID (RDE)) | Hypotension SAE (300 mg BID (RDE)) | Nausea SAE (300 mg BID (RDE)) | Vomiting SAE (300 mg BID (RDE)) | Acute kidney injury SAE (300 mg QD) | Cellulitis SAE (300 mg QD) | Constipation SAE (300 mg QD) | Diarrhoea SAE (300 mg QD) | Eyelid bleeding SAE (300 mg QD) | Hepatic cytolysis SAE (300 mg QD) | Hepatic failure SAE (300 mg QD) | Hypotension SAE (300 mg QD) | Nausea SAE (300 mg QD) | Neutrophil count decreased SAE (300 mg QD) | Oedema peripheral SAE (300 mg QD) | Patients with ≥1 SAE (300 mg QD) | Pneumonia SAE (300 mg QD) | Rash pruritic SAE (300 mg QD) | Thrombocytopenia SAE (300 mg QD) | Vomiting SAE (300 mg QD) | Acute kidney injury SAE (400 mg BID) | Cellulitis SAE (400 mg BID) | Constipation SAE (400 mg BID) | Diarrhoea SAE (400 mg BID) | Eyelid bleeding SAE (400 mg BID) | Hepatic cytolysis SAE (400 mg BID) | Hepatic failure SAE (400 mg BID) | Nausea SAE (400 mg BID) | Neutrophil count decreased SAE (400 mg BID) | Oedema peripheral SAE (400 mg BID) | Pneumonia SAE (400 mg BID) | Rash pruritic SAE (400 mg BID) | Thrombocytopenia SAE (400 mg BID) | Vomiting SAE (400 mg BID) | Acute kidney injury SAE (500 mg QD) | Cellulitis SAE (500 mg QD) | Constipation SAE (500 mg QD) | Eyelid bleeding SAE (500 mg QD) | Hepatic cytolysis SAE (500 mg QD) | Hepatic failure SAE (500 mg QD) | Nausea SAE (500 mg QD) | Neutrophil count decreased SAE (500 mg QD) | Oedema peripheral SAE (500 mg QD) | Pneumonia SAE (500 mg QD) | Rash pruritic SAE (500 mg QD) | Thrombocytopenia SAE (500 mg QD) | Vomiting SAE (500 mg QD) | Acute kidney injury SAE (800 mg QD) | Cellulitis SAE (800 mg QD) | Constipation SAE (800 mg QD) | Diarrhoea SAE (800 mg QD) | Eyelid bleeding SAE (800 mg QD) | Hepatic cytolysis SAE (800 mg QD) | Hepatic failure SAE (800 mg QD) | Nausea SAE (800 mg QD) | Neutrophil count decreased SAE (800 mg QD) | Oedema peripheral SAE (800 mg QD) | Pneumonia SAE (800 mg QD) | Rash pruritic SAE (800 mg QD) | Thrombocytopenia SAE (800 mg QD) | Vomiting SAE (800 mg QD) | Acute kidney injury SAE (1000 mg QD) | Cellulitis SAE (1000 mg QD) | Constipation SAE (1000 mg QD) | Diarrhoea SAE (1000 mg QD) | Eyelid bleeding SAE (1000 mg QD) | Hepatic cytolysis SAE (1000 mg QD) | Hepatic failure SAE (1000 mg QD) | Nausea SAE (1000 mg QD) | Neutrophil count decreased SAE (1000 mg QD) | Oedema peripheral SAE (1000 mg QD) | Rash pruritic SAE (1000 mg QD) | Thrombocytopenia SAE (1000 mg QD) | Vomiting SAE (1000 mg QD) | Constipation SAE (All BID) | Diarrhoea SAE (All BID) | Nausea SAE (All BID) | Vomiting SAE (All BID) | Acute kidney injury SAE (All QD) | Cellulitis SAE (All QD) | Eyelid bleeding SAE (All QD) | Hepatic cytolysis SAE (All QD) | Hepatic failure SAE (All QD) | Neutrophil count decreased SAE (All QD) | Oedema peripheral SAE (All QD) | Rash pruritic SAE (All QD) | Thrombocytopenia SAE (All QD)
